Experimental data from the OligoGym collection.
After the bases stand the sugars from the 5' end (letter, count) and the backbone: PS all phosphorothioate, else s phosphorothioate and o phosphodiester by linkage. Methylation of C is not given here. e = 2'-O-(2-methoxyethyl) (MOE); k = constrained ethyl (cEt); d = 2'-deoxy (DNA); m = 2'-O-methyl

Target: HSD17B13
Details: ASO, HepaRG

Sequence | target mRNA inhibition (1 µM) [%] | further results
AATAGCAAGCCAACAG (sugars k3 d10 k3, PS) | 9 | 
AATAGCCATGTAGCTA (sugars k3 d10 k3, PS) | 28 | 
AATATCAGCCATCTAG (sugars k3 d10 k3, PS) | 24 | 
AATATGGGATGAGGTA (sugars k3 d9 k3 e1, PS) | 47 | 
AATATTGAGGCACTGG (sugars k3 d10 k3, PS) | 54 | 
AATCAATCTGTCTGAA (sugars k3 d10 k3, PS) | 34 | 
AATCACAAGTAAGGTA (sugars kkdddddddddkekek, PS) | 59 | 
AATCAGTTTTCCTCAT (sugars k3 d10 k3, PS) | 53 | 
AATCCCAACCAAACTT (sugars k3 d1 m1 d8 k3, PS) | 7 | 
AATCCCAACCAAACTT (sugars k3 d10 k3, PS) | 23 | 
AATCCTATGCAAATTC (sugars k3 d10 k3, PS) | 42 | 
AATCGCTGCTTAGTTC (sugars k3 d10 k3, PS) | 41 | 
AATCTAGCAACCTCTA (sugars k3 d10 k3, PS) | 22 | 
AATGCTACTTGAACAG (sugars kkdddddddddkekek, PS) | 39 | 
AATGTATGAGGTCTCC (sugars k3 d10 k3, PS) | 65 | 
AATGTCCTAGGATGTT (sugars k3 d10 k3, PS) | 70 | 
AATTACTCCGTTCTGC (sugars k3 d10 k3, PS) | 6 | 
AATTCACCTTGACTAA (sugars k3 d9 k3 e1, PS) | 16 | 
AATTGATACACCAATG (sugars kkdddddddddkekek, PS) | 50 | 
AATTTATTGGTATGGT (sugars k3 d10 k3, PS) | 30 | 
AATTTGTGAACCTGCA (sugars k3 d10 k3, PS) | 20 | 
ACAACTGGAGGTATGT (sugars k3 d10 k3, PS) | 0 | 

Sequence | target mRNA inhibition (1 µM) [%] | further results
ACAAGATTAGTCTTGA (sugars k3 d10 k3, PS) | 45 | 
ACAATATGGGATGAGG (sugars k3 d9 k3 e1, PS) | 76 | target mRNA inhibition (0.02 µM): 0%; target mRNA inhibition (0.078 µM): 0%; target mRNA inhibition (0.313 µM): 0%; target mRNA inhibition (1.25 µM): 39%; target mRNA inhibition (5 µM): 55%
ACAATCTAGCAACCTC (sugars k3 d10 k3, PS) | 44 | 
ACAATCTCCCCAGCCA (sugars k3 d10 k3, PS) | 67 | 
ACACTAATTTAGTCAA (sugars k3 d10 k3, PS) | 16 | 
ACACUAATATTGAGGC (sugars k3 d1 m1 d8 k3, PS) | 43 | 
ACAGAGGAGTTTGCAG (sugars k3 d10 k3, PS) | 37 | 
ACAGATTGGAATGCTA (sugars k3 d10 k3, PS) | 50 | 
ACAGTAAAATTATGCC (sugars k3 d9 k3 e1, PS) | 62 | 
ACAGTCTTAAACCTTC (sugars k3 d9 k3 e1, PS) | 73 | target mRNA inhibition (0.02 µM): 13%; target mRNA inhibition (0.078 µM): 31%; target mRNA inhibition (0.313 µM): 52%; target mRNA inhibition (1.25 µM): 71%; target mRNA inhibition (5 µM): 80%
ACAGTCTTAAACCTTC (sugars k3 d10 k3, PS) | 76 | target mRNA inhibition (0.02 µM): 5%; target mRNA inhibition (0.078 µM): 16%; target mRNA inhibition (0.313 µM): 52%; target mRNA inhibition (1.25 µM): 75%; target mRNA inhibition (5 µM): 80%
ACAGTCTTAAACCTTC (sugars kkdddddddddkekek, PS) | 46 | 
ACAGUCTTAAACCTTC (sugars k3 d1 m1 d8 k3, PS) | 81 | target mRNA inhibition (0.02 µM): 19%; target mRNA inhibition (0.078 µM): 35%; target mRNA inhibition (0.313 µM): 41%; target mRNA inhibition (1.25 µM): 67%; target mRNA inhibition (5 µM): 85%
ACATAACTACTTCAGT (sugars k3 d10 k3, PS) | 28 | 
ACATAGCTAACTCAGG (sugars k3 d10 k3, PS) | 38 | 
ACATATACAGACTAAG (sugars k3 d10 k3, PS) | 46 | 
ACATATGGTGTACACT (sugars k3 d10 k3, PS) | 19 | 
ACATCTCTGGGACCAA (sugars kkdddddddddkekek, PS) | 67 | 
ACATTCTTCAGGTGTT (sugars k3 d10 k3, PS) | 88 | target mRNA inhibition (0.02 µM): 0%; target mRNA inhibition (0.078 µM): 20%; target mRNA inhibition (0.313 µM): 48%; target mRNA inhibition (1.25 µM): 80%; target mRNA inhibition (5 µM): 90%
ACATTGCAGTTATTAG (sugars k3 d10 k3, PS) | 42 | 
ACATUAGCAAGCTAAG (sugars k3 d1 m1 d8 k3, PS) | 23 | 
